# Source: publication PMC5218480 (PLoS ONE, 2017)
# System: MV-4-11 cells
# Experiment: Gene expression microarray analysis (Affymetrix PrimeView) and GSEA
# Type: cell-based, human
# Set-up: RFU PODN (11730768_x_at) / Fold change /veh PODN (11730768_x_at) / RFU LINC00158 (11744669_a_at) / Fold change /veh LINC00158 (11744669_a_at) / RFU DUSP10 (11751237_a_at) / Fold change /veh DUSP10 (11751237_a_at) / RFU ID3 (11757404_x_at) / Fold change /veh ID3 (11757404_x_at) / RFU PLEKHG5 (11737974_s_at) / Fold change /veh PLEKHG5 (11737974_s_at) / RFU LRRC4B (11730491_at) / Fold change /veh LRRC4B (11730491_at) / RFU GIMAP4 (11747438_a_at) / Fold change /veh GIMAP4 (11747438_a_at) / RFU KRT8 (11758183_x_at) / Fold change /veh KRT8 (11758183_x_at) / RFU CNN1 (11734310_a_at) / Fold change /veh CNN1 (11734310_a_at) / RFU VPS37D (11726825_at) / Fold change /veh VPS37D (11726825_at) / RFU C10orf10 (11716522_x_at) / Fold change /veh C10orf10 (11716522_x_at) / RFU KIR2DL2 /// KIR2DL4 /// KIR2DL5A /// KIR2DL5B /// KIR2DS1 /// KIR2DS2 /// KIR2DS3 /// KIR2DS4 /// KIR3DL3 /// KIR3DL3 /// KIR3DS1 (11738374_at) / Fold change /veh KIR2DL2 /// KIR2DL4 /// KIR2DL5A /// KIR2DL5B /// KIR2DS1 /// KIR2DS2 /// KIR2DS3 /// KIR2DS4 /// KIR3DL3 /// KIR3DL3 /// KIR3DS1 (11738374_at) / RFU C1QL1 (11718748_at) / Fold change /veh C1QL1 (11718748_at) / RFU TMPRSS4 (11747572_a_at) / Fold change /veh TMPRSS4 (11747572_a_at) / RFU HAMP (11756126_x_at) / Fold change /veh HAMP (11756126_x_at) / RFU RNFT2 (11725882_a_at) / Fold change /veh RNFT2 (11725882_a_at) / RFU NR4A2 (11747474_a_at) / Fold change /veh NR4A2 (11747474_a_at) / RFU ABCC12 (11746883_a_at) / Fold change /veh ABCC12 (11746883_a_at) / RFU TMEM136 (11760407_x_at) / Fold change /veh TMEM136 (11760407_x_at) / RFU CLDN22 /// WWC2 (11732394_at) / Fold change /veh CLDN22 /// WWC2 (11732394_at) / RFU HLA-DPB1 (11760878_x_at) / Fold change /veh HLA-DPB1 (11760878_x_at) / RFU SPINT1 (11716480_a_at) / Fold change /veh SPINT1 (11716480_a_at) / RFU GAP43 (11754022_s_at) / Fold change /veh GAP43 (11754022_s_at) / RFU A4GNT (11735810_at) / Fold change /veh A4GNT (11735810_at) / RFU PRB3 (11715151_x_at) / Fold change /veh PRB3 (11715151_x_at) / RFU TUBB4B (11761932_at) / Fold change /veh TUBB4B (11761932_at) / RFU CAPN14 (11732068_a_at) / Fold change /veh CAPN14 (11732068_a_at) / RFU TMCC2 (11721928_a_at) / Fold change /veh TMCC2 (11721928_a_at) / RFU IRGQ (11745062_a_at) / Fold change /veh IRGQ (11745062_a_at) / RFU FAM174B (11720279_a_at) / Fold change /veh FAM174B (11720279_a_at) / RFU TMPRSS4 (11748680_a_at) / Fold change /veh TMPRSS4 (11748680_a_at) / RFU FAM212B (11763350_a_at) / Fold change /veh FAM212B (11763350_a_at) / RFU PLEKHG5 (11743358_a_at) / Fold change /veh PLEKHG5 (11743358_a_at) / RFU ZSCAN30 (11745921_a_at) / Fold change /veh ZSCAN30 (11745921_a_at) / RFU CMKLR1 (11741424_a_at) / Fold change /veh CMKLR1 (11741424_a_at) / RFU LOC101060620 /// MAPK8IP1 (11723275_at) / Fold change /veh LOC101060620 /// MAPK8IP1 (11723275_at) / RFU SPTSSB (11747773_x_at) / Fold change /veh SPTSSB (11747773_x_at) / RFU PRSS12 (11739890_at) / Fold change /veh PRSS12 (11739890_at) / RFU BIN1 (11741810_x_at) / Fold change /veh BIN1 (11741810_x_at) / RFU WNT11 (11732464_a_at) / Fold change /veh WNT11 (11732464_a_at) / RFU C10orf10 (11716521_a_at) / Fold change /veh C10orf10 (11716521_a_at) / RFU C5orf56 (11738089_at) / Fold change /veh C5orf56 (11738089_at) / RFU CYB561 (11721691_x_at) / Fold change /veh CYB561 (11721691_x_at) / RFU ANKRD19P (11752326_a_at) / Fold change /veh ANKRD19P (11752326_a_at) / RFU OR2T12 /// OR2T33 /// OR2T8 (11738714_s_at) / Fold change /veh OR2T12 /// OR2T33 /// OR2T8 (11738714_s_at) / RFU VCAN (11748164_a_at) / Fold change /veh VCAN (11748164_a_at) / RFU JSRP1 (11732532_at) / Fold change /veh JSRP1 (11732532_at) / RFU KRTAP10-11 (11738290_x_at) / Fold change /veh KRTAP10-11 (11738290_x_at) / RFU MYO3A (11730013_a_at) / Fold change /veh MYO3A (11730013_a_at) / RFU EBF3 (11725865_a_at) / Fold change /veh EBF3 (11725865_a_at) / RFU CAMK2N1 (11719241_x_at) / Fold change /veh CAMK2N1 (11719241_x_at) / RFU C5orf56 (11738088_a_at) / Fold change /veh C5orf56 (11738088_a_at) / RFU OLFML3 (11715873_a_at) / Fold change /veh OLFML3 (11715873_a_at) / RFU LOC100653217 /// NTM (11731650_a_at) / Fold change /veh LOC100653217 /// NTM (11731650_a_at) / RFU MAPK11 (11762145_a_at) / Fold change /veh MAPK11 (11762145_a_at) / RFU FIZ1 (11724087_x_at) / Fold change /veh FIZ1 (11724087_x_at) / RFU OASL (11726364_x_at) / Fold change /veh OASL (11726364_x_at) / RFU SOX15 (11748057_x_at) / Fold change /veh SOX15 (11748057_x_at) / RFU CD79A (11719716_a_at) / Fold change /veh CD79A (11719716_a_at) / RFU HIST1H1D (11736915_at) / Fold change /veh HIST1H1D (11736915_at) / RFU CASKIN2 (11723855_a_at) / Fold change /veh CASKIN2 (11723855_a_at) / RFU LOC730098 (11760151_x_at) / Fold change /veh LOC730098 (11760151_x_at) / RFU OR4N2 (11742367_at) / Fold change /veh OR4N2 (11742367_at) / RFU PRRT2 (11749266_a_at) / Fold change /veh PRRT2 (11749266_a_at) / RFU SNX32 (11753110_a_at) / Fold change /veh SNX32 (11753110_a_at) / RFU CDHR5 (11726645_a_at) / Fold change /veh CDHR5 (11726645_a_at) / RFU RCAN1 (11760418_a_at) / Fold change /veh RCAN1 (11760418_a_at) / RFU FAM167A (11723789_a_at) / Fold change /veh FAM167A (11723789_a_at) / RFU FAM26E (11764081_at) / Fold change /veh FAM26E (11764081_at) / RFU ISYNA1 (11749810_s_at) / Fold change /veh ISYNA1 (11749810_s_at) / RFU ACY1 (11761880_at) / Fold change /veh ACY1 (11761880_at) / RFU 11764098_at / Fold change /veh 11764098_at / RFU SAMD14 (11745864_x_at) / Fold change /veh SAMD14 (11745864_x_at) / RFU NPB (11741838_a_at) / Fold change /veh NPB (11741838_a_at) / RFU TMPRSS6 (11731388_a_at) / Fold change /veh TMPRSS6 (11731388_a_at) / RFU KRTAP10-2 (11738614_at) / Fold change /veh KRTAP10-2 (11738614_at) / RFU ARHGAP8 /// PRR5-ARHGAP8 (11727945_x_at) / Fold change /veh ARHGAP8 /// PRR5-ARHGAP8 (11727945_x_at) / RFU KRTAP5-7 /// NADSYN1 (11734609_at) / Fold change /veh KRTAP5-7 /// NADSYN1 (11734609_at) / RFU RASL12 (11751679_a_at) / Fold change /veh RASL12 (11751679_a_at) / RFU CDKN2B (11736163_a_at) / Fold change /veh CDKN2B (11736163_a_at) / RFU PRF1 (11729649_at) / Fold change /veh PRF1 (11729649_at) / RFU, ZNF638 /// ZNF638-IT1 / Fold change vs veh, ZNF638 /// ZNF638-IT1 / RFU, PANK3 / Fold change vs veh, PANK3 / RFU, SH3YL1 / Fold change vs veh, SH3YL1 / RFU, ZEB2 / Fold change vs veh, ZEB2 / RFU, NRIP1 / Fold change vs veh, NRIP1 / RFU, PTTG1IP / Fold change vs veh, PTTG1IP / RFU, CAPN2 / Fold change vs veh, CAPN2 / RFU, MED14 / Fold change vs veh, MED14 / RFU, SNORA58 / Fold change vs veh, SNORA58 / RFU, C1orf63 / Fold change vs veh, C1orf63 / RFU, LRRFIP1 / Fold change vs veh, LRRFIP1 / RFU, NDUFAF7 / Fold change vs veh, NDUFAF7 / RFU, SLC12A2 / Fold change vs veh, SLC12A2 / RFU, IBTK / Fold change vs veh, IBTK / RFU, ESF1 / Fold change vs veh, ESF1 / Fold change vs veh, TMEM50B / RFU, TAOK1 / Fold change vs veh, TAOK1 / RFU, ACBD3 / Fold change vs veh, ACBD3 / RFU, TMA16 / Fold change vs veh, TMA16 / RFU, RWDD3 / Fold change vs veh, RWDD3 / RFU, BCAT1 / Fold change vs veh, BCAT1 / RFU, EDEM3 / Fold change vs veh, EDEM3 / RFU, TMEM33 / Fold change vs veh, TMEM33 / RFU, WDR75 / Fold change vs veh, WDR75 / RFU, AHCTF1 / Fold change vs veh, AHCTF1 / RFU, TFRC / Fold change vs veh, TFRC / RFU, ZDHHC17 / Fold change vs veh, ZDHHC17 / RFU, NOM1 / Fold change vs veh, NOM1 / RFU, ARL8B / Fold change vs veh, ARL8B / RFU, ZBTB11 / Fold change vs veh, ZBTB11 / RFU, TAMM41 / Fold change vs veh, TAMM41 / RFU, KIAA1704 /// LOC100996395 / Fold change vs veh, KIAA1704 /// LOC100996395 / RFU, ING1 / Fold change vs veh, ING1 / RFU, TRMT61B / Fold change vs veh, TRMT61B / RFU, FUBP3 / Fold change vs veh, FUBP3 / RFU, TP53 / Fold change vs veh, TP53 / RFU, TNKS2 / Fold change vs veh, TNKS2 / RFU, ZFP14 / Fold change vs veh, ZFP14 / RFU, ACTR2 / Fold change vs veh, ACTR2 / RFU, PPP3R1 / Fold change vs veh, PPP3R1 / RFU, PIK3R1 / Fold change vs veh, PIK3R1 / RFU, HNRNPA1 / Fold change vs veh, HNRNPA1 / RFU, RNF170 / Fold change vs veh, RNF170 / RFU, ZNF28 / Fold change vs veh, ZNF28 / RFU, RNGTT / Fold change vs veh, RNGTT / RFU, OGT / Fold change vs veh, OGT / RFU, BRD1 / Fold change vs veh, BRD1 / RFU, MARS / Fold change vs veh, MARS / RFU, ZNF655 / Fold change vs veh, ZNF655 / RFU, FAHD1 / Fold change vs veh, FAHD1 / RFU, BDP1 / Fold change vs veh, BDP1 / RFU, LRRCC1 / Fold change vs veh, LRRCC1 / RFU, ARID1A / Fold change vs veh, ARID1A / RFU, ZNF146 / Fold change vs veh, ZNF146 / RFU, ZNF330 / Fold change vs veh, ZNF330 / RFU, GPN3 / Fold change vs veh, GPN3 / RFU, C9orf123 / Fold change vs veh, C9orf123 / RFU, N4BP2L2 / Fold change vs veh, N4BP2L2 / RFU, ARFIP1 / Fold change vs veh, ARFIP1 / RFU, FAM179B / Fold change vs veh, FAM179B / RFU, BCL10 / Fold change vs veh, BCL10 / RFU, UHRF1BP1L / Fold change vs veh, UHRF1BP1L / RFU, BET1 / Fold change vs veh, BET1 / RFU, CNOT2 / Fold change vs veh, CNOT2 / RFU, ZNF268 / Fold change vs veh, ZNF268 / Fold change vs veh, ZNF507 / RFU, DGCR2 / Fold change vs veh, DGCR2 / RFU, WDSUB1 / Fold change vs veh, WDSUB1 / Fold change vs veh, HSP90B1 /// MIR3652 / RFU, ADSS / Fold change vs veh, ADSS / RFU, GK / Fold change vs veh, GK / RFU, ZNF148 / Fold change vs veh, ZNF148 / RFU, TAF9 / Fold change vs veh, TAF9 / RFU, SLC1A5 / Fold change vs veh, SLC1A5 / RFU, SLMO2 / Fold change vs veh, SLMO2 / RFU, ABCC4 / Fold change vs veh, ABCC4 / RFU, LOC101060439 /// RAP1B / Fold change vs veh, LOC101060439 /// RAP1B / RFU, RFX7 / Fold change vs veh, RFX7 / RFU, GTPBP10 / Fold change vs veh, GTPBP10 / RFU, CNEP1R1 / Fold change vs veh, CNEP1R1 / RFU, BIVM-ERCC5 /// ERCC5 / Fold change vs veh, BIVM-ERCC5 /// ERCC5 / RFU, ILF3 / Fold change vs veh, ILF3 / RFU 11762660_at / Fold change /veh 11762660_at / RFU VCAN (11757783_s_at) / Fold change /veh VCAN (11757783_s_at) / RFU DDX43 (11728927_at) / Fold change /veh DDX43 (11728927_at) / RFU KRT8 (11758188_x_at) / Fold change /veh KRT8 (11758188_x_at) / RFU NKD1 (11759106_at) / Fold change /veh NKD1 (11759106_at) / RFU SRD5A1 (11742802_a_at) / Fold change /veh SRD5A1 (11742802_a_at) / RFU TPSAB1 /// TPSB2 (11721975_s_at) / Fold change /veh TPSAB1 /// TPSB2 (11721975_s_at) / RFU GSTM3 (11746129_a_at) / Fold change /veh GSTM3 (11746129_a_at) / RFU IL23R (11737362_x_at) / Fold change /veh IL23R (11737362_x_at) / RFU TMEM51 (11727254_a_at) / Fold change /veh TMEM51 (11727254_a_at) / RFU PIWIL2 (11732686_x_at) / Fold change /veh PIWIL2 (11732686_x_at) / RFU ORM1 (11744905_x_at) / Fold change /veh ORM1 (11744905_x_at) / RFU CCDC152 (11743942_at) / Fold change /veh CCDC152 (11743942_at) / RFU ECM1 (11717891_a_at) / Fold change /veh ECM1 (11717891_a_at) / RFU IL23R (11748794_a_at) / Fold change /veh IL23R (11748794_a_at) / RFU TNFAIP8L3 (11732012_x_at) / Fold change /veh TNFAIP8L3 (11732012_x_at) / RFU MBOAT4 (11741988_at) / Fold change /veh MBOAT4 (11741988_at) / RFU 11764193_at / Fold change /veh 11764193_at / RFU TMEM53 (11763286_at) / Fold change /veh TMEM53 (11763286_at) / RFU MAGEB2 (11727129_at) / Fold change /veh MAGEB2 (11727129_at) / RFU TMEM200A (11744735_a_at) / Fold change /veh TMEM200A (11744735_a_at) / RFU CCDC152 (11751479_a_at) / Fold change /veh CCDC152 (11751479_a_at) / RFU FAM211A (11726209_a_at) / Fold change /veh FAM211A (11726209_a_at) / RFU RGS16 (11746705_a_at) / Fold change /veh RGS16 (11746705_a_at) / RFU VCAN (11755009_s_at) / Fold change /veh VCAN (11755009_s_at) / RFU RHOB (11743442_s_at) / Fold change /veh RHOB (11743442_s_at) / RFU RGS16 (11720943_a_at) / Fold change /veh RGS16 (11720943_a_at) / RFU RGS16 (11720944_at) / Fold change /veh RGS16 (11720944_at) / RFU, VPS4B / Fold change vs veh, VPS4B / RFU, CREB1 / Fold change vs veh, CREB1 / RFU, DNAJC13 / Fold change vs veh, DNAJC13 / RFU, GNAQ / Fold change vs veh, GNAQ / RFU, CDK5R1 / Fold change vs veh, CDK5R1 / RFU, ZRANB3 / Fold change vs veh, ZRANB3 / RFU, CUL4A / Fold change vs veh, CUL4A / RFU, CCNY / Fold change vs veh, CCNY / RFU, UFL1 / Fold change vs veh, UFL1 / RFU, COG3 / Fold change vs veh, COG3 / RFU, DIAPH2 / Fold change vs veh, DIAPH2 / RFU, SKA2 / Fold change vs veh, SKA2 / RFU, AFF3 / Fold change vs veh, AFF3 / RFU, LMF1 / Fold change vs veh, LMF1 / RFU, IPO11 / Fold change vs veh, IPO11 / RFU, DFFB / Fold change vs veh, DFFB / RFU, FOXP1 / Fold change vs veh, FOXP1 / RFU, CARD8 / Fold change vs veh, CARD8 / RFU, STRN3 / Fold change vs veh, STRN3 / RFU, ADK / Fold change vs veh, ADK / RFU, RASSF2 / Fold change vs veh, RASSF2 / RFU, WIPF1 / Fold change vs veh, WIPF1 / RFU, LARP1B / Fold change vs veh, LARP1B / RFU, RASA1 / Fold change vs veh, RASA1 / RFU, RB1 / Fold change vs veh, RB1 / RFU, PPFIA1 / Fold change vs veh, PPFIA1 / RFU, MAT2A / Fold change vs veh, MAT2A / RFU, CCT5 / Fold change vs veh, CCT5 / RFU, WDR92 / Fold change vs veh, WDR92 / RFU, CUX1 / Fold change vs veh, CUX1 / RFU, TTC7A / Fold change vs veh, TTC7A / RFU, TMEM135 / Fold change vs veh, TMEM135 / RFU, DEPTOR / Fold change vs veh, DEPTOR / RFU, CPM / Fold change vs veh, CPM / RFU, DNAJB6 / Fold change vs veh, DNAJB6 / RFU, CACNA2D3 / Fold change vs veh, CACNA2D3 / RFU, DTX4 / Fold change vs veh, DTX4 / RFU, TFCP2 / Fold change vs veh, TFCP2 / RFU, GMCL1 /// GMCL1P1 / Fold change vs veh, GMCL1 /// GMCL1P1 / RFU, AEBP2 / Fold change vs veh, AEBP2 / RFU, SNHG1 /// SNORD22 /// SNORD25 /// SNORD26 /// SNORD27 /// SNORD28 /// SNORD29 /// SNORD31 / Fold change vs veh, SNHG1 /// SNORD22 /// SNORD25 /// SNORD26 /// SNORD27 /// SNORD28 /// SNORD29 /// SNORD31 / Fold change (Aza/veh), C12orf56 (ProbeSet 11735607_a_at) / Fold change (ACY-1035/veh), C12orf56 (ProbeSet 11735607_a_at) / Fold change (Aza/veh), FGFR1OP (ProbeSet 11751329_s_at) / Fold change (ACY-1035/veh), FGFR1OP (ProbeSet 11751329_s_at) / Fold change (Aza/veh), VPS36 (ProbeSet 11739960_a_at) / Fold change (ACY-1035/veh), VPS36 (ProbeSet 11739960_a_at) / RFU SYPL1 (11715823_x_at) / Fold change /veh SYPL1 (11715823_x_at) / RFU IGFBP7 (11715501_s_at) / Fold change /veh IGFBP7 (11715501_s_at) / RFU REEP3 (11722064_at) / Fold change /veh REEP3 (11722064_at) / RFU IGLL1 (11728026_x_at) / Fold change /veh IGLL1 (11728026_x_at): dose or concentration left out as unconfirmed
# Conditions: MV-4-11 cells, 48 hours
compound,measurement,value
Nc1ncn([C@@H]2O[C@H](CO)[C@@H](O)[C@H]2O)c(=O)n1 [azacitidine],RFU PIWIL2 (11732686_x_at),15.01 RFU
